Assay results reported in PubChem BioAssay AID252 (DTP/NCI, 2004).
Values joined by “and” are separate entries in the source; they are usually repeats but may differ in a detail not shown here. Equal values may be shown once. Toxic doses and inconclusive results are not listed.

System: BDF1 mice, intracerebral L1210 leukemia, survival T/C
Assay: NCI In Vivo Anticancer Drug Screen. Data for tumor model L1210 Leukemia (intracerebral) in B6D2F1 (BDF1) mice
Settings: higher = longer survival
In short: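 Tumour was transplanted, animals received compound or vehicle, then survival in each group was measured and treated divided by control.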

[1] = endpoint: mean survival time, dose: 2.0 mg/kg/injection, schedule: Q01DX009 (ip), vehicle: saline

Compound: COc1cc(NS(C)(=O)=O)ccc1Nc1c2ccccc2nc2c(C)cccc12
- T/C (endpoint: mean survival time, dose: 2.5 mg/kg/injection, schedule: Q01DX009 (ip), vehicle: water): 116 % of control and 113 % of control
- T/C (endpoint: mean survival time, dose: 2.5 mg/kg/injection, schedule: Q01DX009 (sc), vehicle: water): 112 % of control and 111 % of control
- T/C (endpoint: mean survival time, dose: 5.0 mg/kg/injection, schedule: Q01DX009 (ip), vehicle: water): 112 % of control
- T/C (endpoint: mean survival time, dose: 5.0 mg/kg/injection, schedule: Q01DX009 (sc), vehicle: water): 105 % of control and 104 % of control
- T/C (endpoint: mean survival time, dose: 10.0 mg/kg/injection, schedule: Q01DX009 (sc), vehicle: water): 103 % of control

Compound: COc1ccc(NC(=O)N(CCCl)N=O)cc1
- T/C (endpoint: mean survival time, dose: 4.4 mg/kg/injection, schedule: Q01DX015 (ip), vehicle: saline): 105 % of control
- T/C (endpoint: mean survival time, dose: 6.6 mg/kg/injection, schedule: Q01DX015 (ip), vehicle: saline): 113 % of control
- T/C (endpoint: mean survival time, dose: 9.9 mg/kg/injection, schedule: Q01DX001 (ip), vehicle: carboxymethylcellulose (CMC)): 104 % of control
- T/C (endpoint: mean survival time, dose: 10.0 mg/kg/injection, schedule: Q01DX015 (ip), vehicle: saline): 113 % of control
- T/C (endpoint: mean survival time, dose: 15.0 mg/kg/injection, schedule: Q01DX001 (ip), vehicle: saline): 102 % of control
- T/C (endpoint: mean survival time, dose: 15.0 mg/kg/injection, schedule: Q01DX015 (ip), vehicle: saline): 124 % of control
- T/C (endpoint: mean survival time, dose: 19.8 mg/kg/injection, schedule: Q01DX001 (ip), vehicle: carboxymethylcellulose (CMC)): 108 % of control
- T/C (endpoint: mean survival time, dose: 22.0 mg/kg/injection, schedule: Q01DX015 (ip), vehicle: saline): 104 % of control
- T/C (endpoint: mean survival time, dose: 30.0 mg/kg/injection, schedule: Q01DX001 (ip), vehicle: saline): 105 % of control
- T/C (endpoint: mean survival time, dose: 39.6 mg/kg/injection, schedule: Q01DX001 (ip), vehicle: carboxymethylcellulose (CMC)): 102 % of control
- T/C (endpoint: mean survival time, dose: 60.0 mg/kg/injection, schedule: Q01DX001 (ip), vehicle: saline): 108 % of control
- T/C (endpoint: mean survival time, dose: 120.0 mg/kg/injection, schedule: Q01DX001 (ip), vehicle: saline): 113 % of control
- T/C (endpoint: mean survival time, dose: 240.0 mg/kg/injection, schedule: Q01DX001 (ip), vehicle: saline): 111 % of control

Compound: O=NN(CCCl)C(=O)Nc1cccc(Cl)c1
- T/C (endpoint: mean survival time, dose: 44.0 mg/kg/injection, schedule: Q01DX001 (ip), vehicle: carboxymethylcellulose (CMC)): 102 % of control
- T/C (endpoint: mean survival time, dose: 67.0 mg/kg/injection, schedule: Q01DX001 (ip), vehicle: carboxymethylcellulose (CMC)): 100 % of control
- T/C (endpoint: mean survival time, dose: 77.0 mg/kg/injection, schedule: Q01DX001 (ip), vehicle: carboxymethylcellulose (CMC)): 107 % of control
- T/C (endpoint: mean survival time, dose: 100.0 mg/kg/injection, schedule: Q01DX001 (ip), vehicle: carboxymethylcellulose (CMC)): 98 % of control
- T/C (endpoint: mean survival time, dose: 117.0 mg/kg/injection, schedule: Q01DX001 (ip), vehicle: carboxymethylcellulose (CMC)): 103 % of control
- T/C (endpoint: mean survival time, dose: 175.0 mg/kg/injection, schedule: Q01DX001 (ip), vehicle: carboxymethylcellulose (CMC)): 108 % of control
- T/C (endpoint: mean survival time, dose: 252.0 mg/kg/injection, schedule: Q01DX001 (ip), vehicle: carboxymethylcellulose (CMC)): 103 % of control

Compound: COc1cc(NS(C)(=O)=O)ccc1Nc1c2cccc(C)c2nc2c(C)cccc12
- T/C (endpoint: mean survival time, dose: 6.25 mg/kg/injection, schedule: Q01DX009 (ip), vehicle: water): 111 % of control
- T/C (endpoint: mean survival time, dose: 6.25 mg/kg/injection, schedule: Q01DX009 (sc), vehicle: water): 98 % of control
- T/C (endpoint: mean survival time, dose: 12.5 mg/kg/injection, schedule: Q01DX009 (sc), vehicle: water): 101 % of control
- T/C (endpoint: mean survival time, dose: 25.0 mg/kg/injection, schedule: Q01DX001 (ip), vehicle: saline): 101 % of control
- T/C (endpoint: mean survival time, dose: 25.0 mg/kg/injection, schedule: Q01DX009 (ip), vehicle: water): 114 % of control
- T/C (endpoint: mean survival time, dose: 25.0 mg/kg/injection, schedule: Q01DX009 (sc), vehicle: water): 103 % of control
- T/C (endpoint: mean survival time, dose: 50.0 mg/kg/injection, schedule: Q01DX001 (ip), vehicle: saline): 107 % of control
- T/C (endpoint: mean survival time, dose: 50.0 mg/kg/injection, schedule: Q01DX009 (sc), vehicle: water): 104 % of control
- T/C (endpoint: mean survival time, dose: 100.0 mg/kg/injection, schedule: Q01DX001 (ip), vehicle: saline): 110 % of control
- T/C (endpoint: mean survival time, dose: 200.0 mg/kg/injection, schedule: Q01DX001 (ip), vehicle: saline): 112 % of control

Compound: CS(=O)(=O)Nc1ccc(Nc2c3ccccc3nc3cc(N)ccc23)cc1
- T/C (endpoint: mean survival time, dose: 1.0 mg/kg/injection, schedule: Q01DX009 (ip), vehicle: saline): 120 % of control
- T/C (endpoint: mean survival time, dose: 1.0 mg/kg/injection, schedule: Q01DX009 (sc), vehicle: saline): 96 % of control
- T/C [1]: 98 % of control
- T/C (endpoint: mean survival time, dose: 2.0 mg/kg/injection, schedule: Q01DX009 (sc), vehicle: saline): 103 % of control
- T/C (endpoint: mean survival time, dose: 4.0 mg/kg/injection, schedule: Q01DX009 (sc), vehicle: saline): 104 % of control

Compound: CCn1cnc2c(SC3CCCC3)ncnc21
- T/C (endpoint: mean survival time, dose: 30.0 mg/kg/injection, schedule: Q01DX015 (ip), vehicle: carboxymethylcellulose (CMC)): 118 % of control
- T/C (endpoint: mean survival time, dose: 62.0 mg/kg/injection, schedule: Q01DX015 (ip), vehicle: carboxymethylcellulose (CMC)): 124 % of control
- T/C (endpoint: mean survival time, dose: 62.0 mg/kg/injection, schedule: Q01DX Z (ip), vehicle: carboxymethylcellulose (CMC)): 118 % of control
- T/C (endpoint: mean survival time, dose: 125.0 mg/kg/injection, schedule: Q01DX001 (ip), vehicle: carboxymethylcellulose (CMC)): 106 % of control
- T/C (endpoint: mean survival time, dose: 125.0 mg/kg/injection, schedule: Q01DX015 (ip), vehicle: carboxymethylcellulose (CMC)): 123 % of control
- T/C (endpoint: mean survival time, dose: 200.0 mg/kg/injection, schedule: Q01DX009 (ip), vehicle: carboxymethylcellulose (CMC)): 103 % of control
- T/C (endpoint: mean survival time, dose: 250.0 mg/kg/injection, schedule: Q01DX001 (ip), vehicle: carboxymethylcellulose (CMC)): 112 % of control
- T/C (endpoint: mean survival time, dose: 250.0 mg/kg/injection, schedule: Q01DX Z (ip), vehicle: carboxymethylcellulose (CMC)): 164 % of control
- T/C (endpoint: mean survival time, dose: 375.0 mg/kg/injection, schedule: Q01DX015 (ip), vehicle: carboxymethylcellulose (CMC)): 169 % of control
- T/C (endpoint: mean survival time, dose: 400.0 mg/kg/injection, schedule: Q01DX009 (ip), vehicle: carboxymethylcellulose (CMC)): 200 % of control
- T/C (endpoint: mean survival time, dose: 500.0 mg/kg/injection, schedule: Q01DX001 (ip), vehicle: carboxymethylcellulose (CMC)): 108 % of control
- T/C (endpoint: mean survival time, dose: 500.0 mg/kg/injection, schedule: Q01DX Z (ip), vehicle: carboxymethylcellulose (CMC)): 98 % of control
- T/C (endpoint: mean survival time, dose: 1000.0 mg/kg/injection, schedule: Q01DX001 (ip), vehicle: carboxymethylcellulose (CMC)): 120 % of control

Compound: O=NN(CCF)C(=O)NC1CC2CCC1C2 (stereo not drawn)
- T/C (endpoint: mean survival time, dose: 5.7 mg/kg/injection, schedule: Q01DX001 (ip), vehicle: other): 106 % of control
- T/C (endpoint: mean survival time, dose: 11.5 mg/kg/injection, schedule: Q01DX001 (ip), vehicle: other): 115 % of control
- T/C (endpoint: mean survival time, dose: 16.5 mg/kg/injection, schedule: Q01DX001 (ip), vehicle: other): 162 % of control
- T/C (endpoint: mean survival time, dose: 23.0 mg/kg/injection, schedule: Q01DX001 (ip), vehicle: other): 161 % of control
- T/C (endpoint: mean survival time, dose: 25.0 mg/kg/injection, schedule: Q01DX001 (ip), vehicle: other): 252 % of control
- T/C (endpoint: mean survival time, dose: 37.0 mg/kg/injection, schedule: Q01DX001 (ip), vehicle: other): 274 % of control
- T/C (endpoint: mean survival time, dose: 37.5 mg/kg/injection, schedule: Q01DX001 (ip), vehicle: other): 321 % of control
- T/C (endpoint: mean survival time, dose: 46.0 mg/kg/injection, schedule: Q01DX001 (ip), vehicle: other): 309 % of control
- T/C (endpoint: mean survival time, dose: 70.0 mg/kg/injection, schedule: Q01DX001 (ip), vehicle: other): 312 % of control
- T/C (endpoint: mean survival time, dose: 126.0 mg/kg/injection, schedule: Q01DX001 (ip), vehicle: other): 312 % of control

Compound: N#CCCN1c2ccccc2Sc2ccccc21
- T/C (endpoint: mean survival time, dose: 12.5 mg/kg/injection, schedule: Q04DX003 (ip), vehicle: Klucel (hydroxypropylcellulose) (HPC)): 100 % of control
- T/C (endpoint: mean survival time, dose: 25.0 mg/kg/injection, schedule: Q04DX003 (ip), vehicle: Klucel (hydroxypropylcellulose) (HPC)): 96 % of control
- T/C (endpoint: mean survival time, dose: 50.0 mg/kg/injection, schedule: Q04DX003 (ip), vehicle: Klucel (hydroxypropylcellulose) (HPC)): 109 % of control
- T/C (endpoint: mean survival time, dose: 100.0 mg/kg/injection, schedule: Q04DX003 (ip), vehicle: Klucel (hydroxypropylcellulose) (HPC)): 104 % of control
- T/C (endpoint: mean survival time, dose: 200.0 mg/kg/injection, schedule: Q04DX003 (ip), vehicle: Klucel (hydroxypropylcellulose) (HPC)): 98 % of control

Compound: CCC(=O)NC1=C(N2CC2)C(=O)C(NC(=O)CC)=C(N2CC2)C1=O
- T/C (endpoint: mean survival time, dose: 0.5 mg/kg/injection, schedule: Q01DX009 (ip), vehicle: saline): 105 % of control
- T/C [1]: 117 % of control

Compound: O=NN(CCCl)C(=O)NC1CCC(C(=O)O)CC1 (stereo not drawn)
- T/C (endpoint: mean survival time, dose: 8.0 mg/kg/injection, schedule: Q01DX001 (ip), vehicle: saline with Tween-80): 165 % of control
- T/C (endpoint: mean survival time, dose: 26.0 mg/kg/injection, schedule: Q01DX001 (ip), vehicle: saline with Tween-80): 181 % of control and 206 % of control
- T/C (endpoint: mean survival time, dose: 40.0 mg/kg/injection, schedule: Q01DX001 (ip), vehicle: saline with Tween-80): 185 % of control and 212 % of control
- T/C (endpoint: mean survival time, dose: 60.0 mg/kg/injection, schedule: Q01DX001 (ip), vehicle: saline with Tween-80): 204 % of control

Compound: CN(C)CC(=O)c1ccc(O)c(O)c1
- T/C (endpoint: median survival time, dose: 100.0 mg/kg/injection, schedule: Q01DX005 (ip), vehicle: saline): 101 % of control
- T/C (endpoint: median survival time, dose: 200.0 mg/kg/injection, schedule: Q01DX005 (ip), vehicle: saline): 101 % of control
- T/C (endpoint: median survival time, dose: 400.0 mg/kg/injection, schedule: Q01DX005 (ip), vehicle: saline): 98 % of control
- T/C (endpoint: median survival time, dose: 800.0 mg/kg/injection, schedule: Q01DX005 (ip), vehicle: saline): 113 % of control
